# Laboratory results: article PMC8185074, “Anchor extension: a structure-guided approach to design cyclic peptides targeting enzyme active sites” (Nature Communications, 2021)
# pIC50: −log10 of the molar value. Peptide text beside a SMILES is read from it.
# Tests used:
# Assay type in all cases: biochemical
# HDAC2 = target: T1, HDAC2 (Homo sapiens, UniProt Q92769); test: HDAC2 inhibition, full IC50 measurement (Reaction Biology; fluorogenic p53 peptide RHKK(Ac)AMC)
# T1 construct: purchased Reaction Biology Corporation (assay run by the CRO)
# Procedure, shortened: (§1)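 Inhibitory peptides were acoustically dispensed with enzyme, then substrate added; 1 h at 30 °C. Developer stopped reaction; plateau endpoint fluorescence (360/460 nm) gave IC50.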
# HDAC1 = target: T2, HDAC1 (Homo sapiens, UniProt Q13547); test: HDAC1 inhibition, full IC50 measurement (Reaction Biology; fluorogenic p53 peptide RHKK(Ac)AMC); settings: t1/t2 replicates
# T2 construct: purchased Reaction Biology Corporation (assay run by the CRO)
# Procedure, shortened: as §1
# HDAC8 = target: T3, HDAC8 (Homo sapiens, UniProt Q9BY41); test: HDAC8 inhibition, full IC50 measurement (Reaction Biology; fluorogenic p53 peptide RHKK(Ac)AMC); settings: t1/t2 replicates
# T3 construct: purchased Reaction Biology Corporation (assay run by the CRO)
# T3 sequence (Q9BY41 1-377): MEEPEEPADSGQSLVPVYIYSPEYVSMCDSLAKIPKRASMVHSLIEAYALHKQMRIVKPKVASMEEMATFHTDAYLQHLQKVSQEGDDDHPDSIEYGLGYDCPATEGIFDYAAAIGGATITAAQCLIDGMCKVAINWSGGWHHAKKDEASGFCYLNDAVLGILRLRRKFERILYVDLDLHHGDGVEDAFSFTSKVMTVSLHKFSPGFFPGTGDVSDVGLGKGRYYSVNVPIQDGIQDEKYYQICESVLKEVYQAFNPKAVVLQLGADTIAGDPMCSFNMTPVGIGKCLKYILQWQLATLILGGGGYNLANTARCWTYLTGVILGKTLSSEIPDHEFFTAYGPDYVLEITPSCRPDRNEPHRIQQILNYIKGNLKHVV
# Procedure, shortened: as §1
# [1] = peptide conc. 1.00E-05 M, listed as des2.1.1_t1
# [2] = peptide conc. 1.00E-05 M, listed as des2.1.1_t2
# [3] = peptide conc. 1.11E-06 M, listed as des2.1.1_t1
# [4] = peptide conc. 1.11E-06 M, listed as des2.1.1_t2
# [5] = peptide conc. 1.23E-07 M, listed as des2.1.1_t1
# [6] = peptide conc. 1.23E-07 M, listed as des2.1.1_t2
# [7] = peptide conc. 1.37E-08 M, listed as des2.1.1_t1
# [8] = peptide conc. 1.37E-08 M, listed as des2.1.1_t2
# [9] = peptide conc. 1.52E-09 M, listed as des2.1.1_t1
# [10] = peptide conc. 1.52E-09 M, listed as des2.1.1_t2
# [11] = peptide conc. 3.33E-06 M, listed as des2.1.1_t1
# [12] = peptide conc. 3.33E-06 M, listed as des2.1.1_t2
# [13] = peptide conc. 3.70E-07 M, listed as des2.1.1_t1
# [14] = peptide conc. 3.70E-07 M, listed as des2.1.1_t2
# [15] = peptide conc. 4.12E-08 M, listed as des2.1.1_t1
# [16] = peptide conc. 4.12E-08 M, listed as des2.1.1_t2
# [17] = peptide conc. 4.57E-09 M, listed as des2.1.1_t1
# [18] = peptide conc. 4.57E-09 M, listed as des2.1.1_t2
# [19] = peptide conc. 5.08E-10 M, listed as des2.1.1_t1
# [20] = peptide conc. 5.08E-10 M, listed as des2.1.1_t2
# T2 sequence (Q13547 whole entry): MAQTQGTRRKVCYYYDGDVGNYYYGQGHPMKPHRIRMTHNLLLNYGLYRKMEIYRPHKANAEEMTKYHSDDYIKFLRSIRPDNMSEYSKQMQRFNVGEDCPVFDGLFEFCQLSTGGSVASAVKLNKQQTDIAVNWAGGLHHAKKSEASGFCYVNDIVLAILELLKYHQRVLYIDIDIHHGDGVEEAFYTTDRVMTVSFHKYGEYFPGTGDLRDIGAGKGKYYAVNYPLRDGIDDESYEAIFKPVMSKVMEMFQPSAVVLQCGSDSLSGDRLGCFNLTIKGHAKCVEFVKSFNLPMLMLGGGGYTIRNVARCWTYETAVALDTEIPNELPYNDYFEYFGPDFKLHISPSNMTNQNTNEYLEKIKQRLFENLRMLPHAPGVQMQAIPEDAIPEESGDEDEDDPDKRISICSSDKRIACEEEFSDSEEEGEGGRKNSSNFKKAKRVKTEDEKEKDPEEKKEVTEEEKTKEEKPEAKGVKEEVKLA
# T1 sequence (Q92769 whole entry): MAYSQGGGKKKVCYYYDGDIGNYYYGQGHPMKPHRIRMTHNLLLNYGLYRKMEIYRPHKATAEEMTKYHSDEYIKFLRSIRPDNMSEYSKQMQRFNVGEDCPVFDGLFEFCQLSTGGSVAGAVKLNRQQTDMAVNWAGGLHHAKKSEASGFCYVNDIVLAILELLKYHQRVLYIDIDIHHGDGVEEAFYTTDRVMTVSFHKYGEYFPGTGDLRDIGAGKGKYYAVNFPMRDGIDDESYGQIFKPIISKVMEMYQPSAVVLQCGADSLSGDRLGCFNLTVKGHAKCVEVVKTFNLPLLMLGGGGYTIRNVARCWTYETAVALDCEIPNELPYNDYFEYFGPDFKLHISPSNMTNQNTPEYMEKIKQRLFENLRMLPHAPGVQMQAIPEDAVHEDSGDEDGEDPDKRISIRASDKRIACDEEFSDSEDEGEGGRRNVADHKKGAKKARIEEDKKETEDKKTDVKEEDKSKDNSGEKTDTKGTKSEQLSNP
compound,measurement,setting,value
"CSCC[C@H]1NC(=O)[C@@H](CO)NC(=O)[C@H](CC(N)=O)NC(=O)[C@H](CC(=O)O)NC(=O)[C@@H]([C@H](C)O)NC(=O)[C@H](Cc2c[nH]c3ccccc23)NC(=O)[C@H](CCCCCS)NC(=O)[C@H](CCCCN)NC(=O)[C@@H](CC(=O)O)NC1=O [des2.1.1, SHA-Trp-dThr-Asp-Asn-dSer-dMet-dAsp-Lys] (HELM PEPTIDE1{D.N.[dS].[dM].[dD].K.[O=C([C@H](CCCCCS)N[*:1])[*:2]].W.[dT]}$PEPTIDE1,PEPTIDE1,1:R1-9:R2$$$V2.0)",HDAC2 activity raw data (signal),"HDAC2; Conc. 1.00E-05 M, t1",-452
same,HDAC2 activity raw data (signal),"HDAC2; Conc. 1.00E-05 M, t2",-1036
same,HDAC2 activity raw data (signal),"HDAC2; Conc. 1.11E-06 M, t1",33890
same,HDAC2 activity raw data (signal),"HDAC2; Conc. 1.11E-06 M, t2",38279
same,HDAC2 activity raw data (signal),"HDAC2; Conc. 1.23E-07 M, t1",186095
same,HDAC2 activity raw data (signal),"HDAC2; Conc. 1.23E-07 M, t2",182790
same,HDAC2 activity raw data (signal),"HDAC2; Conc. 1.37E-08 M, t1",599694
same,HDAC2 activity raw data (signal),"HDAC2; Conc. 1.37E-08 M, t2",552663
same,HDAC2 activity raw data (signal),"HDAC2; Conc. 1.52E-09 M, t1",969892
same,HDAC2 activity raw data (signal),"HDAC2; Conc. 1.52E-09 M, t2",886346
same,HDAC2 activity raw data (signal),"HDAC2; Conc. 3.33E-06 M, t1",19780
same,HDAC2 activity raw data (signal),"HDAC2; Conc. 3.33E-06 M, t2",13124
same,HDAC2 activity raw data (signal),"HDAC2; Conc. 3.70E-07 M, t1",88233
same,HDAC2 activity raw data (signal),"HDAC2; Conc. 3.70E-07 M, t2",84596
same,HDAC2 activity raw data (signal),"HDAC2; Conc. 4.12E-08 M, t1",374430
same,HDAC2 activity raw data (signal),"HDAC2; Conc. 4.12E-08 M, t2",356371
same,HDAC2 activity raw data (signal),"HDAC2; Conc. 4.57E-09 M, t1",827090
same,HDAC2 activity raw data (signal),"HDAC2; Conc. 4.57E-09 M, t2",782443
same,HDAC2 activity raw data (signal),"HDAC2; Conc. 5.08E-10 M, t1",1119506
same,HDAC2 activity raw data (signal),"HDAC2; Conc. 5.08E-10 M, t2",1036443
same,pIC50,"HDAC2; figure legends, Supp. Table 1, read-out: HDAC2 IC50",7.79
same,HDAC1 activity raw data (signal),HDAC1; [1],-3296
same,HDAC1 activity raw data (signal),HDAC1; [2],-5
same,HDAC1 activity raw data (signal),HDAC1; [3],15027
same,HDAC1 activity raw data (signal),HDAC1; [4],19517
same,HDAC1 activity raw data (signal),HDAC1; [5],121250
same,HDAC1 activity raw data (signal),HDAC1; [6],94143
same,HDAC1 activity raw data (signal),HDAC1; [7],426941
same,HDAC1 activity raw data (signal),HDAC1; [8],417070
same,HDAC1 activity raw data (signal),HDAC1; [9],888087
same,HDAC1 activity raw data (signal),HDAC1; [10],854689
same,HDAC1 activity raw data (signal),HDAC1; [11],5417
same,HDAC1 activity raw data (signal),HDAC1; [12],8523
same,HDAC1 activity raw data (signal),HDAC1; [13],47109
same,HDAC1 activity raw data (signal),HDAC1; [14],41206
same,HDAC1 activity raw data (signal),HDAC1; [15],257706
same,HDAC1 activity raw data (signal),HDAC1; [16],221039
same,HDAC1 activity raw data (signal),HDAC1; [17],716596
same,HDAC1 activity raw data (signal),HDAC1; [18],664253
same,HDAC1 activity raw data (signal),HDAC1; [19],1042274
same,HDAC1 activity raw data (signal),HDAC1; [20],995234
same,HDAC8 activity raw data (signal),HDAC8; [1],964380
same,HDAC8 activity raw data (signal),HDAC8; [2],738285
same,HDAC8 activity raw data (signal),HDAC8; [3],17568030
same,HDAC8 activity raw data (signal),HDAC8; [4],18194235
same,HDAC8 activity raw data (signal),HDAC8; [5],56084359
same,HDAC8 activity raw data (signal),HDAC8; [6],53955732
same,HDAC8 activity raw data (signal),HDAC8; [7],68600267
same,HDAC8 activity raw data (signal),HDAC8; [8],68709597
same,HDAC8 activity raw data (signal),HDAC8; [9],73629892
same,HDAC8 activity raw data (signal),HDAC8; [10],68940487
same,HDAC8 activity raw data (signal),HDAC8; [11],6524465
same,HDAC8 activity raw data (signal),HDAC8; [12],5933628
same,HDAC8 activity raw data (signal),HDAC8; [13],36548840
same,HDAC8 activity raw data (signal),HDAC8; [14],38514186
same,HDAC8 activity raw data (signal),HDAC8; [15],62692187
same,HDAC8 activity raw data (signal),HDAC8; [16],60959948
same,HDAC8 activity raw data (signal),HDAC8; [17],71596500
same,HDAC8 activity raw data (signal),HDAC8; [18],73045422
same,HDAC8 activity raw data (signal),HDAC8; [19],76849547
same,HDAC8 activity raw data (signal),HDAC8; [20],76232042
